Reference: PubChem BioAssay (NCI)
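Briefly, cells in 96-well plates were exposed to five compound concentrations for 48 h, and endpoints were estimated by linear interpolation. TGI marks complete inhibition of growth.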

Experiments:
Experiment in all cases: growth of human tumour cells (NCI), 48 h
786-0 renal = test system: 786-0 renal
A498 renal = test system: A498 renal
A549 NSCLC = test system: A549 NSCLC
ACHN renal = test system: ACHN renal
CAKI-1 renal = test system: CAKI-1 renal
CCRF-CEM leukemia = test system: CCRF-CEM leukemia
COLO 205 colon = test system: COLO 205 colon
DLD-1 colon = test system: DLD-1 colon
DMS 114 small cell lung = test system: DMS 114 small cell lung
DMS 273 small cell lung = test system: DMS 273 small cell lung
EKVX NSCLC = test system: EKVX NSCLC
HCC-2998 colon = test system: HCC-2998 colon
HCT-116 colon = test system: HCT-116 colon
HCT-15 colon = test system: HCT-15 colon
HL-60(TB) leukemia = test system: HL-60(TB) leukemia
HOP-18 NSCLC = test system: HOP-18 NSCLC
HOP-62 NSCLC = test system: HOP-62 NSCLC
HOP-92 NSCLC = test system: HOP-92 NSCLC
HT29 colon = test system: HT29 colon
K-562 leukemia = test system: K-562 leukemia
KM12 colon = test system: KM12 colon
KM20L2 colon = test system: KM20L2 colon
LOX IMVI melanoma = test system: LOX IMVI melanoma
LXFL 529 NSCLC = test system: LXFL 529 NSCLC
M14 melanoma = test system: M14 melanoma
MALME-3M melanoma = test system: MALME-3M melanoma
MOLT-4 leukemia = test system: MOLT-4 leukemia
NCI-H226 lung = test system: NCI-H226 lung
NCI-H23 lung = test system: NCI-H23 lung
NCI-H460 lung = test system: NCI-H460 lung
NCI-H522 lung = test system: NCI-H522 lung
OVCAR-3 ovarian = test system: OVCAR-3 ovarian
OVCAR-4 ovarian = test system: OVCAR-4 ovarian
OVCAR-5 ovarian = test system: OVCAR-5 ovarian
OVCAR-8 ovarian = test system: OVCAR-8 ovarian
RPMI-8226 leukemia = test system: RPMI-8226 leukemia
RXF 393 renal = test system: RXF 393 renal
SF-268 CNS = test system: SF-268 CNS
SF-295 CNS = test system: SF-295 CNS
SF-539 CNS = test system: SF-539 CNS
SK-MEL-2 melanoma = test system: SK-MEL-2 melanoma
SK-MEL-28 melanoma = test system: SK-MEL-28 melanoma
SK-MEL-5 melanoma = test system: SK-MEL-5 melanoma
SK-OV-3 ovarian = test system: SK-OV-3 ovarian
SNB-19 CNS = test system: SNB-19 CNS
SNB-75 CNS = test system: SNB-75 CNS
SNB-78 CNS = test system: SNB-78 CNS
SW-620 colon = test system: SW-620 colon
TK-10 renal = test system: TK-10 renal
U251 CNS = test system: U251 CNS
UACC-257 melanoma = test system: UACC-257 melanoma
UO-31 renal = test system: UO-31 renal
XF 498 CNS = test system: XF 498 CNS

SMILES: COc1ccc(C2Oc3cc(OC)c(O)cc3[C@@H]2C)cc1 (stereo partly drawn)
- TGI (786-0 renal): 31.3 µM
- TGI (A498 renal): > 100 µM
- TGI (A549 NSCLC): > 100 µM
- TGI (ACHN renal): 33.2 µM
- TGI (CAKI-1 renal): 96.2 µM
- TGI (CCRF-CEM leukemia): 44.2 µM
- TGI (COLO 205 colon): > 100 µM
- TGI (DLD-1 colon): 44.4 µM
- TGI (DMS 114 small cell lung): 40.3 µM
- TGI (DMS 273 small cell lung): > 100 µM
- TGI (EKVX NSCLC): > 100 µM
- TGI (HCC-2998 colon): > 100 µM
- TGI (HCT-116 colon): 25.9 µM
- TGI (HCT-15 colon): 35.4 µM
- TGI (HL-60(TB) leukemia): 47.4 µM
- TGI (HOP-18 NSCLC): > 100 µM
- TGI (HOP-62 NSCLC): > 100 µM
- TGI (HOP-92 NSCLC): 72.1 µM
- TGI (HT29 colon): > 100 µM
- TGI (K-562 leukemia): > 100 µM
- TGI (KM12 colon): > 100 µM
- TGI (KM20L2 colon): > 100 µM
- TGI (LOX IMVI melanoma): 27.9 µM
- TGI (LXFL 529 NSCLC): 32.1 µM
- TGI (M14 melanoma): 51.2 µM
- TGI (MALME-3M melanoma): > 100 µM
- TGI (MOLT-4 leukemia): 42.8 µM
- TGI (NCI-H226 lung): 92.6 µM
- TGI (NCI-H23 lung): > 100 µM
- TGI (NCI-H460 lung): > 100 µM
- TGI (NCI-H522 lung): 38 µM
- TGI (OVCAR-3 ovarian): > 100 µM
- TGI (OVCAR-4 ovarian): > 100 µM
- TGI (OVCAR-5 ovarian): > 100 µM
- TGI (OVCAR-8 ovarian): 56.6 µM
- TGI (RPMI-8226 leukemia): 58.2 µM
- TGI (RXF 393 renal): > 100 µM
- TGI (SF-268 CNS): > 100 µM
- TGI (SF-295 CNS): > 100 µM
- TGI (SF-539 CNS): > 100 µM
- TGI (SK-MEL-2 melanoma): > 100 µM
- TGI (SK-MEL-28 melanoma): > 100 µM
- TGI (SK-MEL-5 melanoma): > 100 µM
- TGI (SK-OV-3 ovarian): > 100 µM
- TGI (SNB-19 CNS): 19.5 µM
- TGI (SNB-75 CNS): 96.6 µM
- TGI (SNB-78 CNS): > 100 µM
- TGI (SW-620 colon): 40.2 µM
- TGI (TK-10 renal): > 100 µM
- TGI (U251 CNS): > 100 µM
- TGI (UACC-257 melanoma): > 100 µM
- TGI (UO-31 renal): 79.3 µM
- TGI (XF 498 CNS): 35.6 µM
